Measured values reported in patent publication US20250340574A1, “MODULATORS OF CYSTIC FIBROSIS TRANSMEMBRANE CONDUCTANCE REGULATOR” (Vertex Pharmaceuticals Incorporated, priority 2022, published 2025).
pEC50: −log10 of the molar value. Where two headings read alike, the source gives them in different places.

Target: T1, CFTR (F508del/MF-HBE cells) (Homo sapiens, UniProt P13569, DEL508-508)
T1 construct: human bronchial epithelial (HBE) cells derived from CF subjects heterozygous for F508del and a minimal function CFTR mutation (F508del/MF-HBE); endogenous in cells; host or cells: Primary human bronchial epithelial cells from CF subjects (F508del/MF genotype), differentiated at an air-liquid interface
T1 sequence (P13569 with tags, fused parts or gaps DEL508-508): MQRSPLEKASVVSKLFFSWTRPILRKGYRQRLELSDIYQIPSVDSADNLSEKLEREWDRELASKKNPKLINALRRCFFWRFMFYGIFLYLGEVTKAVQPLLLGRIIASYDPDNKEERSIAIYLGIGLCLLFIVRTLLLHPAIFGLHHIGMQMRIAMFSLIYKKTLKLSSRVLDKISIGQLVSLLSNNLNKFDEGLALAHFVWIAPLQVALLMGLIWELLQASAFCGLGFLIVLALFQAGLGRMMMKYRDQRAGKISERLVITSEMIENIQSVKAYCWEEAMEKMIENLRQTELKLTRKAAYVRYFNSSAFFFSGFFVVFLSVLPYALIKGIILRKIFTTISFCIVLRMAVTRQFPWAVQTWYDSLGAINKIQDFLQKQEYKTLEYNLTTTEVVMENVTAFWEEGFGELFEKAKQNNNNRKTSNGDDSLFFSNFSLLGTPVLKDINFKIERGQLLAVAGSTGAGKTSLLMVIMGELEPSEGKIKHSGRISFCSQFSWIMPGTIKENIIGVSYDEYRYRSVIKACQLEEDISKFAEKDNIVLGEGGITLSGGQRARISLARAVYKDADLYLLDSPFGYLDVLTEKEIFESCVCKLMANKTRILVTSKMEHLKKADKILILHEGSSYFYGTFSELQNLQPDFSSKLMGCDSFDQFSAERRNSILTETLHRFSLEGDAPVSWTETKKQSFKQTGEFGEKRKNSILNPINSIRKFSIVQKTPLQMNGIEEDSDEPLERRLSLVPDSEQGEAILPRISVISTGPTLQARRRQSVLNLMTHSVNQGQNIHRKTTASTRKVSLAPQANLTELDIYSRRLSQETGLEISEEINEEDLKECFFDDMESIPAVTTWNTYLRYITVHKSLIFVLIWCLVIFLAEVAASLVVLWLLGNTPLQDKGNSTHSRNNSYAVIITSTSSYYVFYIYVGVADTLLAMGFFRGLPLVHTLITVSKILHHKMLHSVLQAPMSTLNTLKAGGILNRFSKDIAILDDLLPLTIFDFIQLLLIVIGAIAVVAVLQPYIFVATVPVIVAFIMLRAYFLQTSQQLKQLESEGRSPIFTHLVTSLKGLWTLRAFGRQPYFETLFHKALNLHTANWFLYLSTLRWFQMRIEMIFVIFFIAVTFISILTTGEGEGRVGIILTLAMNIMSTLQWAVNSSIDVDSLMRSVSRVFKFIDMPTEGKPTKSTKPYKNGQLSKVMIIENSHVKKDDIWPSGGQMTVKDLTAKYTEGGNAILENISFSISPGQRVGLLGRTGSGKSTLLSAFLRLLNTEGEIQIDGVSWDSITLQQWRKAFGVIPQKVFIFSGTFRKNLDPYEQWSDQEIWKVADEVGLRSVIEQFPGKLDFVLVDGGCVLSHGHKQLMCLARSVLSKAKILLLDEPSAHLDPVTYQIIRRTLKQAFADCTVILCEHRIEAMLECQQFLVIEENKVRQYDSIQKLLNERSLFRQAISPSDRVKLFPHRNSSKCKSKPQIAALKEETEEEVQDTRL
Test: Ussing chamber assay of CFTR-mediated short-circuit currents, Assay C (0.026 μM to 25 μM, 6 concentrations)
Format: cell-based
Conditions: with 33 nM potentiator and 18 μM Tezacaftor, 20% human serum; for Emax: read-out: C Max activity (%)
Experimental: Ussing chamber experiments were performed using human bronchial epithelial (HBE) cells derived from CF subjects heterozygous for F508del and a minimal function CFTR mutation (F508del/MF-HBE) and cultured as previously described (Neuberger T, Burton B, Clark H, Van Goor F Methods Mol Biol 2011:741:39-54). After four days the apical media was removed, and the cells were grown at an air liquid interface for >14 days prior to use.
To isolate the CFTR-mediated short-circuit (ISC) current, F508del/MF-HBE grown on Costar® Snapwell™ cell culture inserts were mounted in an Ussing chamber and the transepithelial ISC was measured under voltage-clamp recording conditions (Vhold=0 mV) at 37° C. The basolateral solution contained (in mM) 145 NaCl, 0.83 K2HPO4, 3.3 KH2PO4, 1.2 MgCl2, 1.2 CaCl2, 10 Glucose, 10 HEPES (pH adjusted to 7.4 with NaOH) and the apical solution contained (in mM) 145 NaGluconate, 1.2 MgCl2, 1.2 CaCl2, 10 glucose, 10 HEPES (pH adjusted to 7.4 with NaOH) and 30 μM amiloride to block the epithelial sodium channel. Forskolin (20 μM) was added to the apical surface to activate CFTR, followed by apical addition of a CFTR inhibitor cocktail consisting of BPO, GlyH-101, and CFTR inhibitor 172 (each at 20 μM final assay concentration) to specifically isolate CFTR currents. The CFTR-mediated ISC (μA/cm^2) for each condition was determined from the peak forskolin response to the steady-state current following inhibition.
The activity of the CFTR corrector compounds on the CFTR-mediated ISC was determined in Ussing chamber studies as described above. The F508del/MF-HBE cell cultures were either incubated with the corrector compounds at a range of concentrations in combination with 33 nM (6R,12R)-17-amino-12-methyl-6,15-bis(trifluoromethyl)-13,19-dioxa-3,4,18-triazatricyclo[12.3.1.12,5]nonadeca-1(18),2,4,14,16-pentaen-6-ol and 18 μM Tezacaftor or were incubated with the corrector compounds at a single fixed concentration of 1 μM in combination with 44 nM (6R,12R)-17-amino-12-methyl-6,15-bis(trifluoromethyl)-13,19-dioxa-3,4,18-triazatricyclo[12.3.1.12,5]nonadeca-1(18),2,4,14,16-pentaen-6-ol and 18 μM Tezacaftor for 18-24 hours at 37° C. and in the presence of 20% human serum. The concentration of corrector compounds with 44 nM or 33 nM (6R,12R)-17-amino-12-methyl-6,15-bis(trifluoromethyl)-13,19-dioxa-3,4,18-triazatricyclo[12.3.1.12,5]nonadeca-1(18),2,4,14,16-pentaen-6-ol and 18 μM Tezacaftor during the 18-24 hours incubations was kept constant throughout the Ussing chamber measurement of the CFTR-mediated ISC to ensure compounds were present throughout the entire experiment. The efficacy and potency of the putative F508del correctors was compared to that of the known Vertex corrector, (14S)-8-[3-(2-{Dispiro[2.0.2.1]heptan-7-yl}ethoxy)-1H-pyrazol-1-yl]-12,12-dimethyl-2λ^6-thia-3,9,11,18,23-pentaazatetracyclo[17.3.1.111,14.05,10]tetracosa-1(22),5,7,9,19(23),20-hexaene-2,2,4-trione, in combination with 18 μM Tezacaftor and 1 μM Ivacaftor.
• Assay A: 0.1 μM to 25 μM, 6 concentrations • Assay B: 0.00001 μM to 25 μM, 12 concentrations • Assay C: 0.026 μM to 25 μM, 6 concentrations • Assay D: Activity at single concentration of 1 μM

| Structure (SMILES) | Emax (18-24 hours) | pEC50 | Emax |
| --- | --- | --- | --- |
| Cc1cccc(OC(C)C)c1-c1nc2nc(c1C)OC[C@@H](CC(C)(C)C)N(Cc1cnc3cc(C(C)(C)C)n(C)c3n1)C(=O)c1cccc(c1)S(=O)(=O)N2 (atropisomer, axis not shown) [Compound I-260] | > 60% | > 6.00 |  |
| Cc1cccc(CC(C)C)c1-c1nc2nc(c1C)OC[C@@H]([C@@H]1CCCO1)N(Cc1cnc3cc(C(C)(C)C)n(C)c3n1)C(=O)c1cccc(c1)S(=O)(=O)N2 (atropisomer, axis not shown) [IV-95] |  | > 6.00 | > 60% |
| Cc1cccc(C)c1-c1cc2nc(n1)NS(=O)(=O)c1cccc(c1)C(=O)N(Cc1cnc3cc(C(C)(C)C)n(C)c3n1)[C@H](C1CCCO1)CO2 (single isomer, unassigned) [IV-96] |  | > 6.00 | > 60% |
| Cc1cccc(CC(C)C)c1-c1nc2nc(c1C)OC[C@@H](COC(C)C)N(Cc1cnc3cc(C4(C(F)(F)F)CC4)n(C)c3n1)C(=O)c1cccc(c1)S(=O)(=O)N2 (atropisomer, axis not shown; (P)) [IV-76, (5P,11R)-7-methyl-6-[2-methyl-6-(2-methylpropyl)phenyl]-12-({5-methyl-6-[1-(trifluoromethyl)cyclopropyl]-5H-pyrrolo[2,3-b]pyrazin-3-yl}methyl)-11-[(propan-2-yloxy)methyl]-9-oxa-2λ^6-thia-3,5,12,19-tetraazatricyclo[12.3.1.1∧{4,8}]nonadeca-1(18),4(19),5,7,14,16-hexaene-2,2,13-trione] |  | > 6.00 | > 60% |
| Cc1cccc(CC(C)C)c1-c1nc2nc(c1C)OC[C@@H](COC(C)C)N(Cc1cnc3cc(C(C)(C)C(F)(F)F)n(C)c3n1)C(=O)c1cccc(c1)S(=O)(=O)N2 [IV-101] |  | > 6.00 | > 60% |
| CCc1cccc(CC)c1-c1cc2nc(n1)NS(=O)(=O)c1cccc(c1)C(=O)N(Cc1cnc3cc(C4(C)CC4)n(C)c3n1)[C@H](CC(C)(C)C)CO2 [IV-71] |  | 5.52 to 6.00 | > 60% |
| Cc1cccc(CC(C)C)c1-c1nc2nc(c1C)OC[C@@H](C(C)C)N(Cc1cnc3cc(C(C)(C)C)n(C)c3n1)C(=O)c1cccc(c1)S(=O)(=O)N2 (atropisomer, axis not shown) [IV-79] |  | > 6.00 | > 60% |
| Cc1cccc(C)c1-c1cc2nc(n1)NS(=O)(=O)c1cccc(c1)C(=O)N(Cc1cnc3oc(C4CC5(CC5)C4)cc3n1)[C@H](CC1(C)CC1)CO2 [IV-65] |  | 5.52 to 6.00 | > 60% |
| CCc1cccc(CC)c1-c1cc2nc(n1)NS(=O)(=O)c1cccc(c1)C(=O)N(Cc1cnc3cc(C(C)(C)C)n(C)c3n1)[C@H](CC(C)(C)C)CO2 [IV-66] |  | > 6.00 | > 60% |
| Cc1cccc(C)c1-c1cc2nc(n1)NS(=O)(=O)c1cccc(c1)C(=O)N(Cc1cnc3oc(C4(C)CC4)cc3n1)[C@H](C[C@@H]1CCCCO1)CO2 [IV-87] |  | 4.52 to 5.52 | > 60% |
| Cc1cccc(CC(C)(C)C)c1-c1nc2nc(c1C)OC[C@@H](CC(C)(C)C)N(Cc1cnc3oc(C(C)(C)C)cc3n1)C(=O)c1cccc(c1)S(=O)(=O)N2 (atropisomer, axis not shown) [Compound I-245] | > 60% | > 6.00 |  |
| Cc1cccc(C)c1-c1cc2nc(n1)NS(=O)(=O)c1cccc(c1)C(=O)N(Cc1cnc3c(n1)CN(C(C)C)C3=O)[C@H](CC1(C)CC1)CO2 [III-18] | > 60% | 5.52 to 6.00 |  |
| Cc1cccc(C)c1-c1cc2nc(n1)NS(=O)(=O)c1cccc(c1)C(=O)N(Cc1cnc3cc(C(C)(C)C)n(C)c3n1)[C@H](C1CCCO1)CO2 (single isomer, unassigned) [IV-97] |  | > 6.00 |  |
| CCc1cccc(CC)c1-c1nc2nc(c1C)OC[C@@H](CC(C)(C)C)N(Cc1cnc3cc(C4(C)CC4)n(C)c3n1)C(=O)c1cccc(c1)S(=O)(=O)N2 [IV-90] |  | 5.52 to 6.00 | > 60% |
| Cc1cccc(C)c1-c1cc2nc(n1)NS(=O)(=O)c1cccc(c1)C(=O)N(Cc1nc3cc(C4CC4)oc3cc1F)[C@H](CC13CC(C1)C3)CO2 [Compound I-208] | > 60% | 5.52 to 6.00 |  |
| Cc1cccc(C)c1-c1cc2nc(n1)NS(=O)(=O)c1cccc(c1)C(=O)N(Cc1cnc3cc(C4(C(F)(F)F)CC4)n(C)c3n1)[C@H](COC(C)C)CO2 [IV-74] |  | 5.52 to 6.00 | > 60% |
| COc1c2nc(nc1-c1c(C)cccc1C)NS(=O)(=O)c1cccc(c1)C(=O)N(Cc1cnc3cc(C4(C(F)(F)F)CC4)n(C)c3n1)[C@H](COC(C)C)CO2 [IV-104] |  | 5.52 to 6.00 | > 60% |
| Cc1cccc(C)c1-c1cc2nc(n1)NS(=O)(=O)c1cccc(c1)C(=O)N(Cc1ncc3oc(C4CC4)cc3n1)[C@H](CC13CC(C1)C3)CO2 [Compound I-209] | > 60% | 5.52 to 6.00 |  |
| Cc1cccc(C)c1-c1cc2nc(n1)NS(=O)(=O)c1cccc(c1)C(=O)N(Cc1cnc3oc(C(C)(C)C)cc3n1)[C@H](C[C@@H]1CCCO1)CO2 [IV-83] |  | 5.52 to 6.00 | > 60% |
| Cc1cccc(C)c1-c1nc2nc(c1C)OC[C@@H](CC(C)(C)C)N(Cc1ncc3oc(C(C)(C)C)cc3n1)C(=O)c1cccc(c1)S(=O)(=O)N2 [Compound I-259] | > 60% | > 6.00 |  |
| Cc1cccc(C)c1-c1cc2nc(n1)NS(=O)(=O)c1cccc(c1)C(=O)N(Cc1cnc3oc(C(C)CO)cc3n1)[C@H](CC1(C)CC1)CO2 (some centres unmarked) [Compound I-256] | > 60% | 5.52 to 6.00 |  |
| Cc1cccc(CC(C)C)c1-c1nc2nc(c1C)OC[C@@H](CC1(C)CC1)N(Cc1cnc3cc(C4(C(F)(F)F)CC4)n(C)c3n1)C(=O)c1cccc(c1)S(=O)(=O)N2 (atropisomer, axis not shown) [IV-77] |  | 5.52 to 6.00 | > 60% |
| Cc1cccc(CC(C)C)c1-c1nc2nc(c1C)OC[C@@H](CC1(C)CC1)N(Cc1cnc3cc(C(C)(C)C)n(C)c3n1)C(=O)c1cccc(n1)S(=O)(=O)N2 [IV-72] |  | 5.52 to 6.00 | > 60% |
| CCc1cccc(CC)c1-c1nc2nc(c1C)OC[C@@H](CC(C)(C)C)N(Cc1cnc3cc(C(C)(C)C)n(C)c3n1)C(=O)c1cccc(c1)S(=O)(=O)N2 [IV-91] |  | > 6.00 | > 60% |
| Cc1cccc(CC2CCCCC2)c1-c1nc2nc(c1C)OC[C@@H](CC(C)(C)C)N(Cc1cnc3cc(C(C)C)n(C)c3n1)C(=O)c1cccc(c1)S(=O)(=O)N2 (atropisomer, axis not shown) [Compound I-178] | > 60% | > 6.00 |  |
| Cc1cccc(C)c1-c1cc2nc(n1)NS(=O)(=O)c1cccc(c1)C(=O)N(Cc1cnc3cc(C(C)(C)C(F)(F)F)n(C)c3n1)[C@H](COC(C)C)CO2 [IV-99] |  | 5.52 to 6.00 | > 60% |
| Cc1cccc(CC(C)C)c1-c1nc2nc(c1C)OC[C@@H](CC(C)(C)C)N(Cc1cnc3oc(C4(C)CC4)cc3n1)C(=O)c1cccc(c1)S(=O)(=O)N2 (atropisomer, axis not shown) [Compound I-257] | > 60% | 5.52 to 6.00 |  |
| Cc1cccc(C)c1-c1cc2nc(n1)NS(=O)(=O)c1cccc(c1)C(=O)N(Cc1cnc3oc(C(C)(C)C)cc3n1)[C@H](COC(C)C)CO2 [Compound I-174] | > 60% | 4.52 to 5.52 |  |
| CCc1cccc(CC)c1-c1cc2nc(n1)NS(=O)(=O)c1cccc(c1)C(=O)N(Cc1cnc3oc(C4CC4)cc3n1)[C@H](CC(C)(C)C)CO2 [IV-68] |  | 5.52 to 6.00 | > 60% |
| Cc1cccc(C)c1-c1cc2nc(n1)NS(=O)(=O)c1cccc(c1)C(=O)N(Cc1nc3cc(C4CC4)oc3cc1F)[C@H](COC(C)C)CO2 [Compound I-198] | > 60% | 5.52 to 6.00 |  |
